Patent US10053461B2 (Hoffmann-La Roche Inc., priority 2015, dated 2018)

Tested on: HBsAg
Experiment: microbe, parasite or virus in culture
Conditions: Hepatitis B virus, HepG2.2.15
Method: HepG2.2.15 cells (Acs et al. Proc Natl Acad Sci USA, 84, (1987), 4641-4), a constitutively HBV-expressing cell line were cultured in DMEM+Glutamax-I medium (Invitrogen, Carlsbad, Calif., USA), supplemented with 10% fetal bovine serum (Invitrogen) and G418 (Invitrogen) at a final concentration of 200 mg/L and maintained in 5% CO2 at 37° C.
HepG2.2.15 cells were seeded in duplicate into white, 96-well plates at 1.5×10^4 cells/well. The cells were treated with a three-fold serial dilution series of the compounds in DMSO. The final DMSO concentration in all wells was 1% and DMSO was used as no drug control.
The HBsAg chemiluminescence immunoassay (CLIA) kit (Autobio Diagnostics Co., Zhengzhou, China, Catalog number: CL0310-2) was used to measure the levels of secreted HBV antigens semi-quantitatively. For the detection 50 μL/well culture supernatant was used and HBsAg was quantified using HBsAg chemiluminescence immunoassay (CLIA) kit (Autobio Diagnostics Co., Zhengzhou, China, Catalog number: CL0310-2), 50 μL of the supernatant was transferred to the CLIA assay plate and 50 μL of enzyme conjugate reagent was added into each well. The plates were sealed and gently agitated for 1 hour at room temperature. The supernatant-enzyme-mixture was discarded and wells were washed 6 times with 300 μL of PBS. The residual liquid was removed by plating the CLIA plate right side down on absorbent tissue paper. 25 μL of substrates A and B were added to each well. Luminance was measured using a luminometer (Mithras LB 940 Multimode Microplate Reader) after 10 minutes incubation. Dose-response curves were generated and the IC50 value was extrapolated by using the E-WorkBook Suite (ID Business Solutions Ltd., Guildford, UK). The IC50 was defined as the compound concentration (or conditioned media log dilution) at which HBsAg secretion was reduced by 50% compared to the no drug control.
The compounds of the present invention were tested for their activity to inhibit HBsAg as described herein.

| Structure (SMILES) | IC50 [nM] |
| --- | --- |
| COc1cc2c(cc1OCC(C)(C)CO)[C@H]1CCC(C)(C)[C@H]1n1cc(C(=O)O)c(=O)cc1-2 (relative stereo) [Example 14, Cis-11-(3-hydroxy-2,2-dimethylpropoxy)-10-methoxy-3,3-dimethyl-7-oxo-1,2,3,3a,7,12b-hexahydrocyclopenta[c]pyrido[2,1-a]isoquinoline-6-carboxylic acid] | 3 |
| COc1cc2c(cc1OCc1ccccc1)[C@@H]1CCCC[C@@H]1n1cc(C(=O)O)c(=O)cc1-2 (relative stereo) [Example 32, cis-12-benzyloxy-11-methoxy-8-oxo-1,2,3,4,4a,13b-hexahydropyrido[1,2-f]phenanthridine-7-carboxylic acid] | 44 |
| CCCc1cc2c(cc1OC)-c1cc(=O)c(C(=O)O)cn1[C@H]1[C@@H]2CCC1(C)C (relative stereo) [Example 40, Cis-10-methoxy-3,3-dimethyl-7-oxo-11-propyl-1,2,3,3a,7,12b-hexahydrocyclopenta[c]pyrido[2,1-a]isoquinoline-6-carboxylic acid] | 19 |
| COc1cc2c(cc1OCCCCCCNS(C)(=O)=O)[C@H]1CCC(C)(C)[C@H]1n1cc(C(=O)O)c(=O)cc1-2 (relative stereo) [Example 26, Cis-10-methoxy-3,3-dimethyl-11-((6-(methylsulfonamido)hexyl)oxy)-7-oxo-1,2,3,3a,7,12b-hexahydrocyclopenta[c]pyrido[2,1-a]isoquinoline-6-carboxylic acid] | 2 |
| COc1cc2c(cc1OCCCN1CCOCC1)[C@H]1CCC(C)(C)[C@H]1n1cc(C(=O)O)c(=O)cc1-2 (relative stereo) [Example 15, Cis-10-methoxy-3,3-dimethyl-11-(3-morpholinopropoxy)-7-oxo-1,2,3,3a,7,12b-hexahydrocyclopenta[c]pyrido[2,1-a]isoquinoline-6-carboxylic acid] | 6 |
| COc1cc2c(cc1C)[C@H]1CCC(C)(C)[C@H]1n1cc(C(=O)O)c(=O)cc1-2 (relative stereo) [Example 38, Cis-10-methoxy-3,3,11-trimethyl-7-oxo-1,2,3,3a,7,12b-hexahydrocyclopenta[c]pyrido[2,1-a]isoquinoline-6-carboxylic acid] | 36 |
| COc1cc2c(cc1OCCCCCCN)[C@H]1CCC(C)(C)[C@H]1n1cc(C(=O)O)c(=O)cc1-2 (relative stereo) [Example 24, Cis-11-((6-aminohexyl)oxy)-10-methoxy-3,3-dimethyl-7-oxo-1,2,3,3a,7,12b-hexahydrocyclopenta[c]pyrido[2,1-a]isoquinoline-6-carboxylic acid] | 20 |
| COc1cc2c(cc1O)[C@H]1CCC(C)(C)[C@H]1n1cc(C(=O)O)c(=O)cc1-2 (relative stereo) [Example 6, Cis-11-hydroxy-10-methoxy-3,3-dimethyl-7-oxo-1,2,3,3a,7,12b-hexahydrocyclopenta[c]pyrido[2,1-a]isoquinoline-6-carboxylic acid] | 84 |
| COCCCOc1cc2c(cc1OC)-c1cc(=O)c(C(=O)O)cn1[C@@H]1CCOC[C@@H]21 (relative stereo) [Example 33, Trans-11-methoxy-12-(3-methoxypropoxy)-8-oxo-1,3,4,4a,8,13b-hexahydropyrano[4,3-c]pyrido[2,1-a]isoquinoline-7-carboxylic acid] | 265 |
| COc1cc2c(cc1OCC(F)(F)F)[C@H]1CCC(C)(C)[C@H]1n1cc(C(=O)O)c(=O)cc1-2 (relative stereo) [Example 8, Cis-10-methoxy-3,3-dimethyl-7-oxo-11-(2,2,2-trifluoroethoxy)-1,2,3,3a,7,12b-hexahydrocyclopenta[c]pyrido[2,1-a]isoquinoline-6-carboxylic acid] | 3 |
| COCCCOc1cc2c(cc1OC)-c1cc(=O)c(C(=O)O)cn1[C@H]1[C@@H]2CCC1(C)C (racemic) [Example 2, cis-10-methoxy-11-(3-methoxypropoxy)-3,3-dimethyl-7-oxo-1,2,3,3a,7,12b-hexahydrocyclopenta[c]pyrido[2,1-a]isoquinoline-6-carboxylic acid] | 1 |
| COc1cc2c(cc1OCCCCCCO)[C@H]1CCC(C)(C)[C@H]1n1cc(C(=O)O)c(=O)cc1-2 (relative stereo) [Example 22, Cis-11-((6-hydroxyhexyl)oxy)-10-methoxy-3,3-dimethyl-7-oxo-1,2,3,3a,7,12b-hexahydrocyclopenta[c]pyrido[2,1-a]isoquinoline-6-carboxylic acid] | 1 |
| COc1cc2c(cc1OCCCSC)[C@H]1CCC(C)(C)[C@H]1n1cc(C(=O)O)c(=O)cc1-2 (relative stereo) [Example 20, Cis-10-methoxy-3,3-dimethyl-11-(3-(methylthio)propoxy)-7-oxo-1,2,3,3a,7,12b-hexahydrocyclopenta[c]pyrido[2,1-a]isoquinoline-6-carboxylic acid] | 2 |
| COc1cc2c(cc1OCCCN1CCCC1=O)[C@H]1CCC(C)(C)[C@H]1n1cc(C(=O)O)c(=O)cc1-2 (relative stereo) [Example 17, Cis-10-methoxy-3,3-dimethyl-7-oxo-11-(3-(2-oxopyrrolidin-1-yl)propoxy)-1,2,3,3a,7,12b-hexahydrocyclopenta[c]pyrido[2,1-a]isoquinoline-6-carboxylic acid] | 25 |
| COCCCOc1cc2c(cc1OC)-c1cc(=O)c(C(=O)O)cn1[C@H]1CCN(C(=O)OCc3ccccc3)C[C@H]21 (relative stereo) [Example 29, Trans-2-((benzyloxy)carbonyl)-11-methoxy-12-(3-methoxypropoxy)-8-oxo-2,3,4,4a,8,13b-hexahydro-1H-benzo[c]pyrido[1,2-a][1,6]naphthyridine-7-carboxylic acid] | 152 |
| COc1cc2c(cc1OCCCN1CCCC1)[C@H]1CCC(C)(C)[C@H]1n1cc(C(=O)O)c(=O)cc1-2 (relative stereo) [Example 16, Cis-10-methoxy-3,3-dimethyl-7-oxo-11-(3-(pyrrolidin-1-yl)propoxy)-1,2,3,3a,7,12b-hexahydrocyclopenta[c]pyrido[2,1-a]isoquinoline-6-carboxylic acid] | 128 |
| COc1cc2c(cc1OCCCCCCNC(=O)OC(C)(C)C)[C@H]1CCC(C)(C)[C@H]1n1cc(C(=O)O)c(=O)cc1-2 (relative stereo) [Example 23, Cis-11-((6-((tert-butoxycarbonyl)amino)hexyl)oxy)-10-methoxy-3,3-dimethyl-7-oxo-1,2,3,3a,7,12b-hexahydrocyclopenta[c]pyrido[2,1-a]isoquinoline-6-carboxylic acid] | 2 |
| COCCCOc1cc2c(cc1OC)-c1cc(=O)c(C(=O)O)cn1[C@@H]1CCS(=O)(=O)C[C@@H]21 (relative stereo) [Example 37, Trans-11-methoxy-12-(3-methoxypropoxy)-8-oxo-1,3,4,4a,8,13b-hexahydropyrido[2,1-a]thiopyrano[4,3-c]isoquinoline-7-carboxylic acid 2,2-dioxide] | 2200 |
| COCCCOc1cc2c(cc1OC)-c1cc(=O)c(C(=O)O)cn1[C@@H]1CCOC[C@H]21 (relative stereo) [Example 34, cis-11-methoxy-12-(3-methoxypropoxy)-8-oxo-1,3,4,4a,8,13b-hexahydropyrano[4,3-c]pyrido[2,1-a]isoquinoline-7-carboxylic acid] | 186 |
| COc1cc2c(cc1OCc1ccccc1)[C@@H]1CCC(C)(C)[C@@H]1n1cc(C(=O)O)c(=O)cc1-2 [Example 5, (3aR,12bS)-11-(benzyloxy)-10-methoxy-3,3-dimethyl-7-oxo-1,2,3,3a,7,12b-hexahydrocyclopenta[c]pyrido[2,1-a]isoquinoline-6-carboxylic acid] | 308 |
| COCCCOc1cc2c(cc1Cl)-c1cc(=O)c(C(=O)O)cn1[C@@H]1CCCCC[C@@H]21 (relative stereo) [Example 27, Trans-13-chloro-12-(3-methoxypropoxy)-2-oxo-2,5a,6,7,8,9,10,10a-octahydrocyclohepta[c]pyrido[2,1-a]isoquinoline-3-carboxylic acid] | 20 |
| COc1cc2c(cc1N1CCCC1)[C@H]1CCC(C)(C)[C@H]1n1cc(C(=O)O)c(=O)cc1-2 (relative stereo) [Example 41, Cis-10-methoxy-3,3-dimethyl-7-oxo-11-(pyrrolidin-1-yl)-1,2,3,3a,7,12b-hexahydrocyclopenta[c]pyrido[2,1-a]isoquinoline-6-carboxylic acid] | < 1.6 |
| CCOC(=O)CCCOc1cc2c(cc1OC)-c1cc(=O)c(C(=O)O)cn1[C@H]1[C@@H]2CCC1(C)C (relative stereo) [Example 18, Cis-11-(4-ethoxy-4-oxobutoxy)-10-methoxy-3,3-dimethyl-7-oxo-1,2,3,3a,7,12b-hexahydrocyclopenta[c]pyrido[2,1-a]isoquinoline-6-carboxylic acid] | 10 |
| COc1cc2c(cc1OC)[C@H]1CCC(C)(C)[C@H]1n1cc(C(=O)O)c(=O)cc1-2 (relative stereo) [Example 7, Cis-10,11-dimethoxy-3,3-dimethyl-7-oxo-1,2,3,3a,7,12b-hexahydrocyclopenta[c]pyrido[2,1-a]isoquinoline-6-carboxylic acid] | 5 |
| COCCCOc1cc2c(cc1OC)-c1cc(=O)c(C(=O)O)cn1[C@@H]1CCSC[C@H]21 (racemic) [Example 36, cis-11-methoxy-12-(3-methoxypropoxy)-8-oxo-1,3,4,4a,8,13b-hexahydropyrido[2,1-a]thiopyrano[4,3-c]isoquinoline-7-carboxylic acid] | 28 |
| CCc1cc2c(cc1OC)-c1cc(=O)c(C(=O)O)cn1[C@H]1[C@@H]2CCC1(C)C [Example 39] | 20 |
| COCCCOc1cc2c(cc1OC)-c1cc(=O)c(C(=O)O)cn1[C@H]1CCN(C(=O)OCc3ccccc3)C[C@@H]21 (relative stereo) [Example 30, cis-2-((benzyloxy)carbonyl)-11-methoxy-12-(3-methoxypropoxy)-8-oxo-2,3,4,4a,8,13b-hexahydro-1H-benzo[c]pyrido[1,2-a][1,6]naphthyridine-7-carboxylic acid] | 564 |
| COc1cc2c(cc1OCCCC#N)[C@H]1CCC(C)(C)[C@H]1n1cc(C(=O)O)c(=O)cc1-2 (relative stereo) [Example 12, Cis-11-(3-cyanopropoxy)-10-methoxy-3,3-dimethyl-7-oxo-1,2,3,3a,7,12b-hexahydrocyclopenta[c]pyrido[2,1-a]isoquinoline-6-carboxylic acid] | 4 |
